From patent US7709511B2, “Benzothiazolone derivatives” (AstraZeneca AB, priority 2005, dated 2010)
Counter-ions that a name gives are not always drawn.

Experiments:
Adrenergic β2 [1] = target: T1, Adrenergic β2 (Homo sapiens, UniProt P07550); assay: Adrenergic β2 mediated cAMP production in H292 cells (AlphaScreen cAMP detection); assay type: cell-based; conditions: for EC50: cAMP, test compounds incubated 10 minutes at room temperature, 300 μM rolipram; for Intrinsic Activity: fraction relative to the maximum activity determined for formoterol, 10 minutes incubation
T1 construct: endogenous in cells; host or cells: H292 cells
T1 sequence (P07550 whole entry): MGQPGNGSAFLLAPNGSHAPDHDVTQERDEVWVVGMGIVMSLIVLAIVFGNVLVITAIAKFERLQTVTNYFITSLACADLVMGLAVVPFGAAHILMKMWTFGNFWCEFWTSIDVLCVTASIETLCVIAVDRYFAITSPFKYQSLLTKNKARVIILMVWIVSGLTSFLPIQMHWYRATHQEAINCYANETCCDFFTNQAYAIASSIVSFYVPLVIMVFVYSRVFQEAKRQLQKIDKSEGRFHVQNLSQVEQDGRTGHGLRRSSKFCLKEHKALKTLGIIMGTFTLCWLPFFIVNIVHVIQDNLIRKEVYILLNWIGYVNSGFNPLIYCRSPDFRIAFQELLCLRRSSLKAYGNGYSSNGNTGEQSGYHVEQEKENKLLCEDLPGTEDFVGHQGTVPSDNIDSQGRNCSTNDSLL
Procedure: Adrenergic β2 Mediated cAMP Production
H292 cells were grown in RPMI (Roswell Park Memorial Institute) medium containing, 10% (v/v) FBS (foetal bovine serum) and 2 mM L-glutamine. Cells were grown in 225 cm2 flasks containing 25 mL media in a humidified incubator at 37° C., 5% CO2. Cells were harvested from the flask and passaged at a 1 in 10 dilution once per week.
The media from flasks containing H292 cells was removed, rinsed with 10 mL PBS (phosphate buffered saline) and replaced with 10 mL Accutase™ cell detachment solution. Flasks were incubated for 15 minutes in a humidified incubator at 37° C., 5% CO2. The cell suspension was counted and the cells re-suspended in RPMI media (containing 10% (v/v) FBS and 2 mM L-glutamine) at 0.05×10^6 cells per mL. 5000 cells in 100 μL were added to each well of a tissue-culture-treated 96-well plate and the cells incubated overnight in a humidified incubator at 37° C., 5% CO2. The culture media was removed, washed twice with 100 μL assay buffer and replaced with 50 μL assay buffer. Cells were rested at room temperature for 20 minutes after which time 25 μL of rolipram (1.2 mM made up in assay buffer containing 2.4% (v/v) dimethylsulphoxide) was added. Cells were incubated with rolipram for 10 minutes after which time test compounds (made up as ×4 concentrated stocks in assay buffer containing 4% (v/v) dimethylsulphoxide) were added and the cells were incubated for 10 minutes at room temperature. Final rolipram concentration in the assay was 300 μM and final vehicle concentration was 1.6% (v/v) dimethylsulphoxide. The reaction was stopped by removing supernatants, washing once with 100 μL assay buffer and replacing with 50 μL lysis buffer. The cell monolayer was frozen at −80° C. for 30 minutes (or overnight).
(§1) AlphaScreen™ cAMP Detection
(§2) The concentration of cAMP (cyclic adenosine monophosphate) in the cell lysate was determined using the AlphaScreen™ methodology. The frozen cell plate was thawed for 20 minutes on a plate shaker then 10 μL of the cell lysate was transferred to a 96-well white plate. 40 μL of mixed AlphaScreen™ detection beads (containing equal volumes of donor beads (pre-incubated with biotinylated cAMP in the dark for 30 minutes) and acceptor beads), was added to each well and the plate incubated at room temperature for 10 hours in the dark. The AlphaScreen™ signal was measured using an EnVision spectrophotometer (Perkin-Elmer Inc.) with the recommended manufacturer's settings. cAMP concentrations were determined by reference to a calibration curve determined in the same experiment using standard cAMP concentrations (made up in lysis buffer in a 96-well tissue-culture-treated plate and frozen/thawed alongside the test samples) and detected using the same protocol. Concentration response curves for agonists were constructed to determine both the pEC50 and Intrinsic Activity. Intrinsic Activity was expressed as a fraction relative to the maximum activity determined for formoterol in each experiment.

Adrenergic β2 [2] = target: T1, Adrenergic β2; assay: Alternative adrenergic β2 mediated cAMP production in H292 cells (AlphaScreen cAMP detection); assay type: cell-based; conditions: for EC50: cAMP, test compounds incubated 60 minutes at room temperature, 300 μM rolipram, read-out: β2 pEC50 (converted); for β2 Int Act: fraction relative to the maximum activity determined for formoterol, 60 minutes incubation
Procedure: Alternative Adrenergic β2 Mediated cAMP Production Cell Preparation
H292 cells were grown in 225 cm2 flasks incubator at 37° C., 5% CO2 in RPMI medium containing, 10% (v/v) FBS (foetal bovine serum) and 2 mM L-glutamine.
Adherent H292 cells were removed from tissue culture flasks by treatment with Accutase™ cell detachment solution for 15 minutes. Flasks were incubated for 15 minutes in a humidified incubator at 37° C., 5% CO2. Detached cells were re-suspended in RPMI media (containing 10% (v/v) FBS and 2 mM L-glutamine) at 0.05×10^6 cells per mL. 5000 cells in 100 μL were added to each well of a tissue-culture-treated 96-well plate and the cells incubated overnight in a humidified incubator at 37° C., 5% CO2. The culture media was removed and cells were washed twice with 100 μL assay buffer and replaced with 50 μL assay buffer (HBSS solution containing 10 mM HEPES pH7.4 and 5 mM glucose). Cells were rested at room temperature for 20 minutes after which time 25 μL of rolipram (1.2 mM made up in assay buffer containing 2.4% (v/v) dimethylsulphoxide) was added. Cells were incubated with rolipram for 10 minutes after which time test compounds were added and the cells were incubated for 60 minutes at room temperature. The final rolipram concentration in the assay was 300 μM and final vehicle concentration was 1.6% (v/v) dimethylsulphoxide. The reaction was stopped by removing supernatants, washing once with 100 μL assay buffer and replacing with 50 μL lysis buffer. The cell monolayer was frozen at −80° C. for 30 minutes (or overnight).
as §1
as §2, with “using” for “using the”, “pre-incubated” for “(containing equal volumes of donor beads (pre-incubated”, “cAMP,” for “cAMP in the dark for 30 minutes) and acceptor beads),”, “concentrations.” for “concentrations (made up in lysis buffer in a 96-well tissue-culture-treated plate and frozen/thawed alongside the test samples) and detected using the same protocol.”, “constructed and data was fitted to a four parameter logistic equation” for “constructed”

| EC50 (Adrenergic β2 [1]) [µM] | Intrinsic Activity (Adrenergic β2 [1]) | EC50 (Adrenergic β2 [2]) [µM] | β2 Int Act (Adrenergic β2 [2]) | Structure (SMILES) |
| --- | --- | --- | --- | --- |
| 0.0158 | 0.8 | 0.00794 | 0.8 | CCN(CC)CCN(CCNCCc1ccc(O)c2[nH]c(=O)sc12)C(=O)CCOCCc1ccccc1 [Example 12, N-[2-(Diethylamino)ethyl]-N-(2-{[2-(4-hydroxy-2-oxo-2,3-dihydro-1,3-benzothiazol-7-yl)ethyl]amino}ethyl)-3-(2-phenylethoxy)propanamide] |
|  |  | 0.0631 | 0.5 | O=c1[nH]c2c(O)ccc(CCNCCN(CCCOCCc3ccccc3)CCc3ccccc3)c2s1 [Example 13, 4-Hydroxy-7-[2-({2-[[3-(2-phenylethoxy)propyl](2-phenylethyl)amino]ethyl}amino)-ethyl]-1,3-benzothiazol-2(3H)-one] |
|  |  | 0.00794 | 1 | CN(C)CCN(CCNCCc1ccc(O)c2[nH]c(=O)sc12)C(=O)CCOCCc1ccccc1 [Example 14, N-[2-(Dimethylamino)ethyl]-N-(2-{[2-(4-hydroxy-2-oxo-2,3-dihydro-1,3-benzothiazol-7-yl)ethyl]amino}ethyl)-3-(2-phenylethoxy)propanamide] |
|  |  | 0.0126 | 0.8 | CCN(CC)CCN(CCNCCc1ccc(O)c2[nH]c(=O)sc12)C(=O)CCOCCc1ccc(O)cc1 [Example 19, N-[2-(Diethylamino)ethyl]-N-(2-{[2-(4-hydroxy-2-oxo-2,3-dihydro-1,3-benzothiazol-7-yl)ethyl]amino}ethyl)-3-[2-(4-hydroxyphenyl)ethoxy]propanamide ditrifluoroacetate] |

More lines, now with the values behind:

| Structure (SMILES) | EC50 (Adrenergic β2 [1]) [µM] | Intrinsic Activity (Adrenergic β2 [1]) | EC50 (Adrenergic β2 [2]) [µM] | β2 Int Act (Adrenergic β2 [2]) |
| --- | --- | --- | --- | --- |
| CC(C)(C)OC(=O)N1CCC(CN(CCNCCc2ccc(O)c3[nH]c(=O)sc23)C(=O)CCOCCc2ccccc2)CC1 [Example 1, tert-Butyl 4-({(2-{[2-(4-hydroxy-2-oxo-2,3-dihydro-1,3-benzothiazol-7-yl)ethyl]amino}ethyl)[3-(2-phenylethoxy)propanoyl]amino}methyl)piperidine-1-carboxylate] | 0.0631 | 0.7 |  |  |
| O=C(CCOCCc1ccccc1)N(CCNCCc1ccc(O)c2[nH]c(=O)sc12)Cc1cccnc1 [Example 5, N-[2-[2-(4-Hydroxy-2-oxo-3H-benzothiazol-7-yl)ethylamino]ethyl]-3-phenethyloxy-N-(3-pyridylmethyl)propanamide] | 0.0126 | 0.8 |  |  |
| O=C(CCOCCc1ccccc1)N(CCCNCCc1ccc(O)c2[nH]c(=O)sc12)CCc1ccccc1 [Example 8, N-(3-{[2-(4-Hydroxy-2-oxo-2,3-dihydro-1,3-benzothiazol-7-yl)ethyl]amino}propyl)-3-(2-phenylethoxy)-N-(2-phenylethyl)propanamide] | 0.00126 | 0.7 |  |  |
| O=C(CCOCCc1ccc(Br)cc1)N(CCNCCc1ccc(O)c2[nH]c(=O)sc12)CCc1ccccc1 [Example 10, 3-[2-(4-Bromophenyl)ethoxy]-N-[2-[2-(4-hydroxy-2-oxo-3H-benzothiazol-7-yl)ethylamino]ethyl]-N-phenethyl-propanamide] | 0.00501 | 0.6 | 0.00794 | 0.7 |
| CCN(CC)CCN(CCNCCc1ccc(O)c2[nH]c(=O)sc12)C(=O)CCOCCc1cc(OC)ccc1Br [Example 21, 3-[2-(2-Bromo-5-methoxyphenyl)ethoxy]-N-[2-(diethylamino)ethyl]-N-(2-{[2-(4-hydroxy-2-oxo-2,3-dihydro-1,3-benzothiazol-7-yl)ethyl]amino}ethyl)propanamide dihydrobromide] |  |  | 0.0794 | 0.6 |
| CCN(CC)CCN(CCNCCc1ccc(O)c2[nH]c(=O)sc12)C(=O)CCOCCc1c(Cl)cccc1Cl [Example 24, 3-[2-(2,6-Dichlorophenyl)ethoxy]-N-(2-diethylaminoethyl)-N-{2-[2-(4-hydroxy-2-oxo-2,3-dihydro-1,3-benzothiazol-7-yl)ethylamino]ethyl}propanamide dihydrobromide] |  |  | 0.1 | 0.9 |
| CCN(CC)CCN(CCNCCc1ccc(O)c2[nH]c(=O)sc12)C(=O)CCOCCc1cccc(C(F)(F)F)c1 [Example 25, N-(2-Diethylaminoethyl)-N-{2-[2-(4-hydroxy-2-oxo-2,3-dihydro-1,3-benzothiazol-7-yl)ethylamino]ethyl}-3-[2-(3-trifluoromethylphenyl)ethoxy]propanamide dihydrobromide] |  |  | 0.0631 | 0.8 |
